The target in one assay is T1, human STING (hSTING) (Homo sapiens, UniProt Q86WV6).
T1 construct: host or cells: HEK-Blue ISG cells (HEK293-derived SEAP reporter line)
Nature of the assay: Inhibition test of intracellular human STING (hSTING) pathway using SEAP reporter cells (HEK-Blue ISG), stimulation with Compound 3. It counts as cell-based. Also noted: hSTING inhibitory activity: scale not given here. To be noted: Compound 3 10 nM stimulation, 21 hours; for IC50: read-out: hSTING inhibitory activity. The essentials: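 HEK-Blue ISG cells with IRF-inducible SEAP reporter, pretreated 1 h with compound (final 0.1 to 10 μM), then stimulated with Compound 3 (final 10 nM) for 21 h at 37° C. Supernatant SEAP measured colorimetrically; IC50 from log-concentration regression, normalized to stimulated (100%) and unstimulated (0%) controls.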

Assay [1] concerns STING activation (IFN-β production in THP-1 cells). Nature of the assay: Human IFN-β production inhibition test by cGAMP stimulation in THP-1 cells. It counts as cell-based. Also on record: IFN-β bioinhibitory activity: scale not given here. To be noted: 2'3'-cGAMP transfection, 18 hours, IFN-β ELISA; for IC50: Homo sapiens, read-out: IFN-β bioinhibitory activity. As for the experimental part: Human IFN-β production inhibition test by cGAMP stimulation
The inhibitory activity of test compounds against STING activation was evaluated by measuring the amount of IFN-β produced when human monocytic cell line THP-1 cells were stimulated with the endogenous ligand cGAMP.
After seeding THP-1 cells (ATCC) in a 96-well plate, PMA (Santa Cruz Biotechnology) adjusted to a concentration of 100 nM after addition was added, and incubated at 37° C. in a 5% CO2 incubator. It was cultured overnight (RPMI1640 medium containing 10% FBS, 50 U/mL penicillin/50 μg/mL streptomycin). A test compound solution adjusted to a final concentration of 0.001 to 1 μM was added to each well of this plate and cultured for 1 hour in a CO2 incubator (DMSO final concentration 0.1%). 0.12 μg/well of 2′3′-cGAMP (Invivogen, #tlrl-nacga23) was introduced into the cells by transfection using Lipofectamine2000 (Invitrogen) and cultured in a CO incubator for an additional 18 hours. After collecting the culture supernatant from each well, the amount of human IFN-β produced in the culture supernatant was measured by ELISA using R&D human IFN-β Duoset (R&D Systems).
Assuming that the human IFN-β production amount of the test compound-free and cGAMP-added group is 100%, and the human IFN-β production amount of the test compound-free and cGAMP-free group is 0%, the IC50 value was determined by regression analysis of the inhibitory rate determined from the amount of human IFN-β production at each compound concentration and the concentration of the test compound (logarithm).

Here are results for 27 compounds from patent US20240279205A1, “NOVEL BENZIMIDAZOLE DERIVATIVE” (Carna Biosciences, Inc., priority 2020, published 2024).

Counter-ions that a name gives are not always drawn.

T1 sequence (Q86WV6 whole entry H232R): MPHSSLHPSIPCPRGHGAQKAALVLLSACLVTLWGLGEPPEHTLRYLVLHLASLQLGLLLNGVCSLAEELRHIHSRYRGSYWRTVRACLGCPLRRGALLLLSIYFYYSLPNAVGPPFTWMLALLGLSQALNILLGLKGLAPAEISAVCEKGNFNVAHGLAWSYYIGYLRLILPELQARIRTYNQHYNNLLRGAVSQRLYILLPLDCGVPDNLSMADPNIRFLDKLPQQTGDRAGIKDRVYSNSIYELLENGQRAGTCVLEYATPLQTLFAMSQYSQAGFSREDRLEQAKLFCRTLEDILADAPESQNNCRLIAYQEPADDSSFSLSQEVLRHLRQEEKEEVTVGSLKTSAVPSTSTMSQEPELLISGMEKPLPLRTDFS

Turning to `Clc1ccc2[nH]cc(Nc3nc4c(N5CCCCC5)cccc4[nH]3)c2n1` [Embodiment 127, N-(5-Chloro-1H-pyrrolo[3,2-b]pyridin-3-yl)-4-(piperidin-1-yl)-1H-benzo[d]imidazol-2-amine], at human STING (hSTING), the hSTING inhibitory activity result is reported as “* *”. Besides, the IFN-β bioinhibitory activity entry in assay [1] is “* *”.
On to `Clc1ccc2[nH]cc(Nc3nc4cc(C#CC5CC5)ccc4[nH]3)c2n1` [Embodiment 125, N-(5-Chloro-1H-pyrrolo[3,2-b]pyridin-3-yl)-5-(cyclopropylethynyl)-1H-benzo[d]imidazol-2-amine], for which, on human STING (hSTING), the hSTING inhibitory activity result is “* *”. The IC50 in assay [1] lay within 100 to 1000 nM.
In the same order, the values of `N#Cc1ccc2[nH]cc(Nc3nc4cc(Oc5ccccc5)ccc4[nH]3)c2n1` [Embodiment 130, 3-[(5-phenoxy-1H-benzo[d]imidazol-2-yl)amino]-1H-pyrrolo[3,2-b] pyridine-5-carbonitrile] are “* *” and at least 1000 nM.
In the case of `Cc1ccc2[nH]cc(Nc3nc4cc(C(F)(F)F)cc(F)c4n3C)c2c1` [Embodiment 256, 7-fluoro-1-methyl-N-(5-methyl-1H-indol-3-yl)-5-(trifluoromethyl)-1H-benzo[d]imidazol-2-amine], the hSTING inhibitory activity result on human STING (hSTING) is “* * *”. For the same compound, in assay [1], the IFN-β bioinhibitory activity entry is “* *”.
With `Brc1ccc2[nH]cc(Nc3nc4cc(Oc5ccccc5)ccc4[nH]3)c2c1` [Example 3, N-(5-bromo-1H-indol-3-yl)-5-phenoxy-1H-benzo[d]imidazol-2-amine], the hSTING inhibitory activity result at human STING (hSTING) is reported as “* *”. The IFN-β bioinhibitory activity entry in assay [1] is “* *”.
Regarding `Fc1cc2nc(Nc3c[nH]c4ccc(Cl)nc34)[nH]c2cc1C(F)(F)F` [Embodiment 160, N-(5-Chloro-1H-pyrrolo[3,2-b]pyridin-3-yl)-5-fluoro-6-(trifluoromethyl)-1H-benzo[d]imidazol-2-amine], the hSTING inhibitory activity result on human STING (hSTING) was “* * *”. Moreover, the IC50 in assay [1] is 100 to 1000 nM.
Consider `CC(C)Cc1ccc2[nH]c(Nc3c[nH]c4ccc(Cl)nc34)nc2c1` [Embodiment 131, N-(5-Chloro-1H-pyrrolo[3,2-b]pyridin-3-yl)-5-isobutyl-1H-benzo [d]imidazol-2-amine formate], for which, at human STING (hSTING), the hSTING inhibitory activity result is on record as “* *”. The IFN-β bioinhibitory activity result in assay [1] is “* *”.
In the case of `COc1ccnc2c(Nc3nc4cc(Oc5ccccc5)ccc4[nH]3)c[nH]c12` [Embodiment 77, N-(7-Methoxy-1H-pyrrolo[3,2-b]pyridin-3-yl)-5-phenoxy-1H-benzo[d]imidazol-2-amine formate], the hSTING inhibitory activity entry on human STING (hSTING) is listed as “* *”. In addition, in assay [1], the IC50 was at least 1000 nM.
On to `CCCn1c(Nc2c[nH]c3ccc(Cl)cc23)nc2cc(C(F)(F)F)cc(F)c21` [Embodiment 238, N-(5-Chloro-1H-indol-3-yl)-7-fluoro-1-propyl-5-(trifluoromethyl)-1H-benzo[d]imidazol-2-amine], for which the hSTING inhibitory activity entry on human STING (hSTING) is “* * *”. In addition, the IFN-β bioinhibitory activity entry in assay [1] was “* *”.
`Clc1ccc2[nH]c(Nc3c[nH]c4ccc(Br)nc34)nc2c1` [Embodiment 32, N-(5-bromo-1H-pyrrolo[3,2-b]pyridin-3-yl)-5-chloro-1H-benzo[d]imidazol-2-amine]: the hSTING inhibitory activity result on human STING (hSTING) is listed as “* *”. For the same compound, in assay [1], the IFN-β bioinhibitory activity entry was “* *”.
With `FC(F)(F)c1ccc2c(c1)nc(Nc1c[nH]c3ccc(I)cc13)n2C1CC1` [Embodiment 232, 1-Cyclopropyl-N-(5-iodo-1H-indol-3-yl)-5-(trifluoromethyl)-1H-benzo[d]imidazol-2-amine], on human STING (hSTING), the hSTING inhibitory activity result is “* *”. Besides, in assay [1], the IFN-β bioinhibitory activity result was “* *”.
Consider `Clc1ccc2[nH]cc(Nc3nc4cc(I)ccc4[nH]3)c2n1` [Embodiment 124, N-(5-Chloro-1H-pyrrolo[3,2-b]pyridin-3-yl)-5-iodo-1H-benzo[d] imidazol-2-amine], for which the hSTING inhibitory activity entry on human STING (hSTING) was “* *”. Moreover, the IFN-β bioinhibitory activity entry in assay [1] is listed as “* * *”.
Take `Cc1ccc2[nH]cc(Nc3nc4cc(Oc5ccccc5)ccc4[nH]3)c2n1` [Embodiment 53, N-(5-methyl-1H-pyrrolo[3,2-b]pyridin-3-yl)-5-phenoxy-1H-benzo[d]imidazol-2-amine]: on human STING (hSTING), the hSTING inhibitory activity entry is recorded as “* *”. In addition, the IC50 in assay [1] is at least 1000 nM.
Consider `Fc1ccc2[nH]c(Nc3c[nH]c4ccc(Br)cc34)nc2c1` [Embodiment 33, N-(5-bromo-1H-indol-3-yl)-5-fluoro-1H-benzo[d]imidazol-2-amine], for which the hSTING inhibitory activity result on human STING (hSTING) is listed as “* * *”. Besides, the IC50 in assay [1] lay in the range of 100 to 1000 nM.
In the case of `CC(C)n1c(Nc2c[nH]c3ccc(Cl)cc23)nc2cc(C(F)(F)F)cc(F)c21` [Embodiment 242, N-(5-Chloro-1H-indol-3-yl)-7-fluoro-1-isopropyl-5-(trifluoromethyl)-1H-benzo[d]imidazol-2-amine], the hSTING inhibitory activity entry on human STING (hSTING) was “* * *”. The IFN-β bioinhibitory activity result in assay [1] is listed as “* *”.
The like results for `C#Cc1ccc2[nH]c(Nc3c[nH]c4ccc(Cl)nc34)nc2c1` [Embodiment 133, N-(5-Chloro-1H-pyrrolo[3,2-b]pyridin-3-yl)-5-ethynyl-1H-benzo[d] imidazol-2-amine formate] were, in that order, “* *” and “* * *”.
Regarding `C#CCn1c(Nc2c[nH]c3ccc(Cl)cc23)nc2cc(C(F)(F)F)cc(F)c21` [Embodiment 241, N-(5-Chloro-1H-indol-3-yl)-7-fluoro-1-(prop-2-yn-1-yl)-5-(trifluoromethyl)-1H-benzo[d] imidazole-2-amine], the hSTING inhibitory activity entry on human STING (hSTING) is listed as “* * *”. Further, the IFN-β bioinhibitory activity entry in assay [1] is reported as “* *”.
The like results for `Clc1ccc2[nH]cc(Nc3nc4cc(C5CC5)ccc4[nH]3)c2n1` [Embodiment 129, N-(5-Chloro-1H-pyrrolo[3,2-b]pyridin-3-yl)-5-cyclopropyl-1H-benzo[d]imidazol-2-amine] were, in that order, “* *” and “* *”.
On to `CS(=O)(=O)c1ccccc1Oc1ccc2[nH]c(Nc3c[nH]c4ccc(Br)nc34)nc2c1` [Embodiment 68, N-(5-bromo-1H-pyrrolo[3,2-b]pyridin-3-yl)-5-[2-(methylsulfonyl)phenoxy]-1H-benzo[d]imidazol-2-amine], for which the IC50 on human STING (hSTING) was at least 10000 nM.
The same measure, in the same setting: then `Brc1cccc2[nH]cc(Nc3nc4ccccc4[nH]3)c12` [Example 9, N-(4-bromo-1H-indol-3-yl)-1H-benzo[d]imidazol-2-amine], with at least 10000 nM; and `COCCn1c(Nc2c[nH]c3ccc(Cl)nc23)nc2cc(F)cc(F)c21` [Embodiment 205, N-(5-chloro-1H-pyrrolo[3,2-b]pyridin-3-yl)-5,7-difluoro-1-(2-methoxyethyl)-1H-benzo[d]imidazole-2-amine], with at least 10000 nM.
As to `COC(=O)c1ccc2[nH]c(Nc3c[nH]c4ccc(Br)nc34)nc2c1` [Embodiment 34, methyl 2-[(5-bromo-1H-pyrrolo[3,2-b]pyridin-3-yl)amino]-1H-benzo[d]imidazole-5-carboxylate], at human STING (hSTING), the hSTING inhibitory activity entry was “* *”.
As to `CS(=O)(=O)c1cccc(Oc2ccc3[nH]c(Nc4c[nH]c5ccc(Br)nc45)nc3c2)c1` [Embodiment 67, N-(5-bromo-1H-pyrrolo[3,2-b]pyridin-3-yl)-5-[3-(methylsulfonyl)phenoxy]-1H-benzo[d]imidazol-2-amine], the hSTING inhibitory activity result at human STING (hSTING) is reported as “* *”.
`Brc1cnc2[nH]cc(Nc3nc4cc(Oc5ccccc5)ccc4[nH]3)c2n1` [Example 21, 2-bromo-N-(5-phenoxy-1H-benzo[d]imidazol-2-yl)-5H-pyrrolo[2,3-b]pyrazin-7-amine]: at human STING (hSTING), the IC50 was at least 10000 nM.
As to `Cc1ccc2[nH]c(Nc3c[nH]c4ccc(Cl)nc34)nc2c1C` [Embodiment 85, N-(5-Chloro-1H-pyrrolo[3,2-b]pyridin-3-yl)-4,5-dimethyl-1H-benzo[d]imidazol-2-amine], at human STING (hSTING), the hSTING inhibitory activity entry is given as “* *”.
Regarding `Clc1ccc2[nH]cc(Nc3nc4cc(OC5CCOCC5)ccc4[nH]3)c2n1` [Embodiment 142, N-(5-Chloro-1H-pyrrolo[3,2-b]pyridin-3-yl)-5-[(tetrahydro-2H-pyran-4-yl)oxy)-1H-benzo[d] imidazol-2-amine], at human STING (hSTING), the IC50 is at least 10000 nM.
For `Cn1nccc1Oc1ccc2[nH]c(Nc3c[nH]c4ccc(Br)nc34)nc2c1` [Embodiment 63, N-(5-bromo-1H-pyrrolo[3,2-b]pyridin-3-yl)-5-[(1-methyl-1H-pyrazol-5-yl)oxy]-1H-benzo[d] imidazol-2-amine], the hSTING inhibitory activity entry on human STING (hSTING) is “* *”.
